In patent EP0462621A2, “Use of particular compounds for manufacture of pharmaceutical formulations for treatment against various parasites, mycoplasmas, other indications and other infections” (Prendergast, Patrick Thomas, priority 1990, dated 1991):

Assays:
[1] = test system: L donovani; test: Amastigote-promastigote (AM-PRO) transformation, in-vitro; type: cell-based; conditions: Ld.
[2] = test system: Enterocytozoon bieneusi; test: Clinical evaluation of AIDS patients with chronic diarrhoea treated with IPA (stool examinations, endoscopic biopsies); type: in vivo; conditions: E. bieneusi identified prior to treatment
Description: Chronic diarrhoea accompanied by wasting is one of the most frequent problems associated with HIV infection. […] A new genera and species of microspora, Enterocytozoon bieneusi, was identified in ultrastructural studies of intestinal biopsies from AIDS patients with unexplained chronic diarrhoea prior to treatment with IPA.
E. bieneusi microsporidiosis (intestinal microsporidiosis) is diagnosed with increasing frequency in AIDS patients with chronic diarrhoea of unknown origin. Forty-seven cases have been reported in the United States, Africa and Europe. […] Until now, diagnosis depended upon light and electron microscopy studies of small bowel biopsies, particularly of the jejunum. Diagnosis is suspected on histological findings either on Giemsa-stained smears and/or hematoxylin-eosin or Giemsa-stained paraffin sections: identification of oval parasites measuring 2-9 u.m and clusters of refractile spores (1-1.5 u.m) in villous enterocytes from just above the mouth of the crypts to the tips of the villi. These organisms are located in the supranuclear position of the cytoplasm. […] Recently reported recovery of spores from faeces, would simplify diagnosis. Unlike other species of microspora, E. bieneusi has not been identified from different organs such as brain and kidney. A proportion of transient diarrhoeas of unknown etiology in AIDS patients may be related to E. bieneusi. […]

[3] = test system: HIV-1 and CAEV; test: Inhibition of virus replication, summary over viruses and cell lines of Figure 15; type: cell-based; conditions: depending upon the virus and cell line
Description: Selected results presented in Tables la(a), la(b) and la(c) are plotted in Figure 15.
It is apparent from Figure 15 that IPA appears to inhibit the replication of HIV-1 and CAEV at concentrations ranging from 3 to 30 µM and above. Without appropriate toxicity data it is not possible to calculate the therapeutic index at the various drug concentrations. Nevertheless, the IC50 can be seen to vary between approximately 2-6 u.M, depending upon the virus and cell line, and the ICso varies between 3-30 µM in these experiments.

[4] = test system: RH strain T. gondii; test: Growth of Toxoplasma gondii in human foreskin fibroblasts, tritiated uracil incorporation; type: cell-based; conditions: various concentrations; Figure 24
Description: An experiment was conducted to evaluate the in-vitro effects of IPA on Toxoplasma Gondii by infecting human foreskin fibroblast monolayers (four replicates per condition) with RH strain T. gondii in the presence of various concentrations of IPA dissolved in Eagle's minimum essential medium without fetal bovine serum. After an initial four hour period of infection, the media and any T. gondii which had not entered the host cells were removed and replaced by media containing 1 u.M tritiated uracil per milliter, and incubated overnight. The mono-layers were lysed, nucleic acids precipitated by trichloroacetic acid, and the precipitates recovered on glass fiber filters. Radioactivity on the filters was measured in a Beckman scintillation spectrometer. Controls included fibroblast monolayers without T. gondii (cell control) and fibroblast monolayers infected by the same inoculum of T. gondii as the IPA treated monolayers (Tg control). The units of uracil incorporation are somewhat lower here because of the lower inoculum of T. gondii.

[5] = test system: CAEV; test: Experiment la(c): Himalayan Tahr ovary cells, CAEV, p28 radioimmunoassay; type: cell-based, caprine arthritis encephalitis virus (CAEV); conditions: as read from Figure 15
Description: A procedure similar to that followed in Experiment la (a) was followed using Himalayan Tahr ovary cells exposed to caprine arthritis encephalitis virus (CAEV), a lentivirus related to HIV-1 which causes leukoen- cephalitis and arthritis in goats. A radioimmunoassay to detect CAEV p28 was used to determine the presence of the virus.

[6] = test system: Monocytes; test: Experiment la(f): monocyte spontaneous migration (agarose droplet); type: cell-based, human; conditions: for Total Area (mm^2) Migration: Table Ia(f)(ii)
Description: Monocytes from each human donor were incubated for 30 minutes with three different dose levels of compound la in triplicate. These cells were added to agarose and droplets of agarose containing cells were added to small chambers. A chemotaxis agent was added to induce enhanced migration of the mononuclear cells. The detailed assay procedures are described below.
Cell migration patterns of triplicates within 30% of each other were generally accepted.
• 1. Add 6 ml Phosphate Buffered Saline (PBS) 2X to 7 ml of Percoll. • 2. Add mixture to 15 ml polycarbonate centrifuge tubes (Sorvall ^*03243, 18 x 100 mm, pt. ^*00770 50/box, w/caps). ' • 3. Centrifuge tubes at 21,000 x g for 45 minutes (Sorvall, RC2-B centrifuge w/SS-34 rotor, 34 fixed angle, -15,000 rpm w/Drake off @ 4 C). Percoll gradient is good for two weeks. • 4. Mononuclear cells are separated from whole blood by differential centrifugation using a synthetic separation medium. • 5. Cells are washed 2X with Basal Salt Solution (BSS). • 6. Resuspend cells in BSS + 10% BCS, then add mixture to 50 ml centrifuge tubes containing 30-40 ml of Bovine Calf Serum (BCS) and centrifuge at 400 x g for 10 minutes. • 7. Resuspend cells in BSS without BCS. • 8. Determine viable cell number. • 9. Adjust concentration of cells to […]. • 10. Carefully layer 2 ml of cells on top of Percoll gradient. Centrifuge tubes at 100 x g for 20 minutes at 4°C with brake off. • 11. Monocyte layer is harvested with a pasteur pipet and aliquoted into a 50 ml centrifuge tube. Dead cells are in the top band. Monocytes are about 5 ml above middle gradient. Lymphocytes are about 5 ml below middle gradient. […] Wash cells 3X in BSS without BCS. • 13. Resuspend cells in desired media. • 14. Perform esterase stain on monocyte cell suspension to determine ratio of monocytes. Ratio ranges from 50 - 80%.
• 1. A 0.4% solution of Agarose (Seakem HE) and distilled H20 is prepared, aliquoted into 1 dram vials, autoclaved and stored at 4° C until used. • 2. A suspension of […] cells in Media 199 2X containing glutamine 2mM, gentamicin 50 µg/ml and bovine calf serum-heat inactivated (56° C, […]) 20%, is combined with an equal amount of 0.4% Agarose. • 3. A 5 µl droplet of cell/agarose mixture is added to the centre of a Sterilin plate (Surrey, England). • 4. A 2 µl droplet of agarose/media mixture is added 3-5mm to one side of the cell/agarose droplet and a 2 µl droplet of agarose/chemo-attractant (N-formyl-L-methionyl-L-Leucyl-L-Phenylalanine 10^-4 M(F-Met-Leu-Phe)) is added 3-5mm to the other side of the cell/agarose droplet. • 5. The droplets are allowed to solidify, after which 0.5 ml of RPMI-1640 containing glutamine 2mM, gentamicin 50, µg/ml and bovine calf serum 10% is added to the well. A cover slip is then placed over the well. • 6. The plate is incubated at 37° C, 5% C02/air humified for approximately 18 hours. • 7. The plate is removed from the incubator and the distance the cells have moved towards the media control and the chemoattractant droplets is traced and measured.

CC(C)=CCNc1ncnc2c1ncn2[C@@H]1O[C@H](CO)[C@@H](O)[C@H]1O [IPA, N^6-(Δ^2-isopentenyl) adenosine]
Activity, AM-PRO transform-ation [1]: + +
pathogen found on clinical evaluation [2]: fails to identify any pathogen
ICso [3]: 3 to 30 µM
IC50 ([3]; approximately): 2 to 6 µM
effect on the growth of T. gondii [4]: inhibitory effect
IC50 [5]: 8 µM
IC90 [5]: 30 µM
reduction in spontaneous migration ([6]; 30 µM): 15%
spontaneous migration ([6]; 0.1 - 0.3 µM): Enhanced spontaneous migration
reduction in the ability of the monocytes to spontaneously migrate ([6]; 100 - 1000 µM): 22-37%
Total Area (mm^2) Migration ([6]; IPA 5 µM, media 9085): 7952 mm^2
Total Area (mm^2) Migration ([6]; IPA 10 µM, media 9085): 6846 mm^2
Total Area (mm^2) Migration ([6]; IPA 15 µM, media 9085): 6300 mm^2
Total Area (mm^2) Migration ([6]; IPA 20 µM, media 8732): 6804 mm^2
Total Area (mm^2) Migration ([6]; IPA 25 µM, media 8732): 6435 mm^2
Total Area (mm^2) Migration ([6]; IPA 30 µM, media 8732): 5795 mm^2
